Results reported in article PMC9604546, “Drosophila HisT is a specific histamine transporter that contributes to histamine recycling in glia” (Science Advances, 2022).

Columns and labels:
Type in all cases: cell-based
human OCT2 [1] = biological target: T1, human OCT2 (Homo sapiens, UniProt O15244); assay: [3H]-histamine uptake in transfected HEK293T cells; conditions: labelled compound; 2.5 uM, 30 min, 37 C, pH 7.4, ECF buffer with 120 mM NaCl
T1 construct: gene SLC22A2
T1 sequence (O15244 1-555): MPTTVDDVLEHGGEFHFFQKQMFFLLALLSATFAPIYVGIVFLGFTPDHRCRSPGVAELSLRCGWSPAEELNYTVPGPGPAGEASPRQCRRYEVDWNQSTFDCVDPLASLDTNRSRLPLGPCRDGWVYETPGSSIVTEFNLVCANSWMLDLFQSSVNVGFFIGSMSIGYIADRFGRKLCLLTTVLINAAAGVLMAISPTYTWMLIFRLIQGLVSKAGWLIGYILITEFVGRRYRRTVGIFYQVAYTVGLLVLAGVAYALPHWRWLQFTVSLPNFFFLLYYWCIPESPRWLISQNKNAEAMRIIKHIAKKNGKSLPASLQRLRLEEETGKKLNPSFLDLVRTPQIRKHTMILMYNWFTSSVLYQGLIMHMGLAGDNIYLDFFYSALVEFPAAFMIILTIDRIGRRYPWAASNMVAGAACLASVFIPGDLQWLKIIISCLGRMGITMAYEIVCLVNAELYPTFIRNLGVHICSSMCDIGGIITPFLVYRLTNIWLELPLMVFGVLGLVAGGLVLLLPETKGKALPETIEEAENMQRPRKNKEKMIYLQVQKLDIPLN

HisT (CG1358) = biological target: T2, HisT (CG1358) (Drosophila melanogaster, UniProt A0A0B4JD50); assay: [3H]-histamine uptake in transfected HEK293T cells; conditions: labelled compound; 2.5 uM, 30 min, 37 C, pH 7.4, ECF buffer with 120 mM NaCl
T2 sequence (A0A0B4JD50 1-482): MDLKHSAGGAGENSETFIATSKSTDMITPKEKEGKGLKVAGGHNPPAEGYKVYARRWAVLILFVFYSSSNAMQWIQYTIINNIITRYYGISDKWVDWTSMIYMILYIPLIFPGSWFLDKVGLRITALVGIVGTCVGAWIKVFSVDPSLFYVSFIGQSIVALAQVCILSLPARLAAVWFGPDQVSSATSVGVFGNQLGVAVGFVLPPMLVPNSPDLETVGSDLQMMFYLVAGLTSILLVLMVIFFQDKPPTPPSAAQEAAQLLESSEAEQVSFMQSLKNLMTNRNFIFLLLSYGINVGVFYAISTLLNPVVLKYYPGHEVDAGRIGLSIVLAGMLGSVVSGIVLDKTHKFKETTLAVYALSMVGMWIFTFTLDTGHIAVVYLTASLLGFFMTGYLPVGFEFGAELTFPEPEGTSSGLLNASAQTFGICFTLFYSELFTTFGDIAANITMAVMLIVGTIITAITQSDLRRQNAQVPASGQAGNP

human OCT2 [2] = biological target: T1, human OCT2; assay: competition of [3H]-histamine uptake in transfected HEK293T cells; conditions: 2.5 uM [3H]-histamine, 30 min, 37 C, pH 7.4; competitor concentration for OCT2 not given

SMILES | [3H]-histamine uptake in transfected HEK293T cells (human OCT2 [1]) | [3H]-histamine uptake in transfected HEK293T cells (HisT (CG1358)) | inhibition of [3H]-histamine uptake (human OCT2 [2])
NCCc1c[nH]cn1 [histamine] | OCT2), which mediates the low-affinity transport of some monoamine neurotransmitters including histamine | is the only transporter exhibiting histamine uptake activity in vitro | 
NCCc1ccc(O)c(O)c1 [dopamine] |  |  | OCT2-mediated [^3H]-histamine uptake was completely blocked by dopamine, serotonin, and carcinine
NCCc1c[nH]c2ccc(O)cc12 [serotonin] |  |  | OCT2-mediated [^3H]-histamine uptake was completely blocked by dopamine, serotonin, and carcinine
NCCC(=O)NCCc1c[nH]cn1 [carcinine] |  |  | OCT2-mediated [^3H]-histamine uptake was completely blocked by dopamine, serotonin, and carcinine
